Test results reported in ChEMBL document CHEMBL1131672, “6-(1-Hydroxyalkyl))penam sulfone derivatives as inhibitors of class A and class C beta-lactamases II” (Bioorg Med Chem Lett, 1999).
≈ marks a conversion by molar mass, not a printed value.

Assays:
Beta-lactamase = Beta-lactamase (Escherichia coli K-12, UniProt P00811); assay: Inhibitory activity against AmpC (class C) beta-lactamase
Escherichia coli [1] = assay: In vitro inhibitory activity against Escherichia coli; format: functional
Serratia marcescens [2] = assay: In vitro inhibitory activity against Serratia marcescens; format: functional
Serratia marcescens [3] = assay: In vivo inhibitory activity against Serratia marcescens in mice; format: functional
Escherichia coli [4] = assay: In vivo inhibitory activity against Escherichia coli in mice; format: functional
Beta-lactamase TEM = Beta-lactamase TEM (Escherichia coli, UniProt P62593); assay: Inhibitory activity against TEM-1 (class A) beta-lactamase
Sequence of Beta-lactamase TEM (P62593 whole entry): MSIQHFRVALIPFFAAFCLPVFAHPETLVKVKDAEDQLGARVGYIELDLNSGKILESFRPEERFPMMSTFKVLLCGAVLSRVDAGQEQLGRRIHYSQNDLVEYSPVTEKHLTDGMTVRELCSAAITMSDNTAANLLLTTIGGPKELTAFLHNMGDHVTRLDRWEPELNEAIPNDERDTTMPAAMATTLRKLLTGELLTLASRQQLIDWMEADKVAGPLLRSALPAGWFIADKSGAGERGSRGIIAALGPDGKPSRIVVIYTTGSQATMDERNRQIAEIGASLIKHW

Sequence of Beta-lactamase (P00811 whole entry): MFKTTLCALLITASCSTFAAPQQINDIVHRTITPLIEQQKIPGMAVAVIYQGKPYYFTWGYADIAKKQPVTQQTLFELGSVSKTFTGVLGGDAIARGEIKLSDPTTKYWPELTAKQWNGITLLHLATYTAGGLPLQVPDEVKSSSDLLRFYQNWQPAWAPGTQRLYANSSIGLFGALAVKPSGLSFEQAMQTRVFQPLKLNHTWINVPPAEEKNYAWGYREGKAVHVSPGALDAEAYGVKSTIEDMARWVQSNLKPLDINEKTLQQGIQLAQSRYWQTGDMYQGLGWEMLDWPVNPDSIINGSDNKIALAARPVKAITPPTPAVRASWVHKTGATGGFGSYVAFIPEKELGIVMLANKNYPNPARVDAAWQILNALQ

| Structure (SMILES) | IC50 (Beta-lactamase) | MIC (Escherichia coli [1]) | MIC (Serratia marcescens [2]) | ED50 (Serratia marcescens [3]) | ED50 (Escherichia coli [4]) | IC50 (Beta-lactamase TEM) |
| --- | --- | --- | --- | --- | --- | --- |
| C[C@]1(/C=C/C#N)[C@H](C(=O)[O-])N2C(=O)[C@@H](CO)[C@H]2S1(=O)=O.[Na+] | 280 nM | 16 µg/mL | 4 µg/mL | – | – | – |
| C[C@]1(/C=C\C#N)[C@H](C(=O)[O-])N2C(=O)[C@@H](CO)[C@H]2S1(=O)=O.[Na+] | 270 nM | 4 µg/mL | 8 µg/mL | 16 mg/kg | 4 mg/kg | – |
| C[C@]1(Cn2ccnn2)[C@H](C(=O)[O-])N2C(=O)[C@@H](CO)[C@H]2S1(=O)=O.[Na+] | – | 2 µg/mL | 16 µg/mL | 125 mg/kg | 3.6 mg/kg | 6 nM |
| CO/N=C/C1(C)[C@H](C(=O)O)N2C(=O)[C@@H](CO)[C@H]2S1(=O)=O (single isomer, unassigned) | 280 nM | 8 µg/mL (≈ 26.1 µM) | 16 µg/mL (≈ 52.2 µM) | – | – | 64 nM |
| CC1(C=CC#N)[C@H](C(=O)O)N2C(=O)C[C@H]2S1(=O)=O (single isomer, unassigned) [Ro-481220] | 1130 nM | 4 µg/mL (≈ 14.8 µM) | 4 µg/mL (≈ 14.8 µM) | 82 mg/kg | 15 mg/kg | 42 nM |
| CCN1CCN(C(=O)N[C@@H](C(=O)N[C@@H]2C(=O)N3[C@@H]2SC(C)(C)[C@@H]3C(=O)O)c2ccccc2)C(=O)C1=O [PIPERACILLIN] | – | > 64 µg/mL | 32 µg/mL (≈ 61.8 µM) | 128 mg/kg | 256 mg/kg | – |
| C[C@]1(Cn2ccnn2)[C@H](C(=O)[O-])N2C(=O)C[C@H]2S1(=O)=O.[Na+] [TAZOBACTAM SODIUM] | – | 2 µg/mL | 32 µg/mL | 144 mg/kg | 7.7 mg/kg | – |
